PMC5474949 (Journal of medicinal chemistry, 2016)
“Also recorded” adds a separate entry of the source.

Tests used:
MDCK-mdr1 cells = experiment: MDCK-mdr1 permeability assay; type: in vitro ADME, canine; conditions: 10 μM apical, 1 h, 37 °C, pH 7.4
hCB1R = hCB1R (Homo sapiens, UniProt P21554); experiment: CB1R radioligand displacement binding assay; conditions: for Ki: read-out: Ki (nM) hCB1R vs CP55,940, [3H]-CP55940 displacement, Cheng–Prusoff
[1] = system: neuropathy induced by unilateral sciatic nerve entrapment (SNE); experiment: SNE-induced mechanical allodynia; type: in vivo, rat; conditions: SNE rats
central CB1Rs = experiment: Tetrad CNS side effect tests; type: in vivo, rat; conditions: naïve rats; for CNS side effects in catalepsy, rotarod, hypothermia assays: ip, 0.3 mg/kg and 3-fold higher doses; for CNS side effects in catalepsy, motor incoordination, hypothermia assays: oral, up to 10 mg/kg
[2] = system: acute nociception in naïve rats; experiment: Tail-flick test; type: in vivo, rat
[3] = Pharmacokinetics: plasma, brain and CSF levels; conditions: rat, 0.3 mg/kg ip, ~75 min
[4] = system: antiallodynic effect of 2-5u in the SNE neuropathy; experiment: Pretreatment with CB1R/CB2R blockers before 2-5u in SNE rats; type: in vivo, rat; conditions: blocker (2 and 3: 3 mg/kg ip) 30 min before 2-5u 0.6 mg/kg

Sequence of hCB1R (P21554 whole entry): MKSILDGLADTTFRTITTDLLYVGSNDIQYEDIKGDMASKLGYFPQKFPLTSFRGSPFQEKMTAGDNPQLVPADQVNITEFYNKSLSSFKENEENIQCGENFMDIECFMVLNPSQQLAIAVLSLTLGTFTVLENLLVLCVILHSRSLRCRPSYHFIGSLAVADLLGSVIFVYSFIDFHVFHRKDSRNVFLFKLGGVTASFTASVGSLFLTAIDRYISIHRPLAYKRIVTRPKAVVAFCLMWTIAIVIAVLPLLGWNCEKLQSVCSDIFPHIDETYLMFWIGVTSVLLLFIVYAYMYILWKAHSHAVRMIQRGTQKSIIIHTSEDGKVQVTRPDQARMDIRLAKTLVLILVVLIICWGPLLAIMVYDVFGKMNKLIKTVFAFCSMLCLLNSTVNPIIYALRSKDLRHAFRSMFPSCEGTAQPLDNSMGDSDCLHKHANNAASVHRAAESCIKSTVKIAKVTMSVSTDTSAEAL

Compound: COC(=O)c1ccc(C(=O)c2cn(CCN3CCOCC3)c3ccccc23)c2ccccc12 [1-4o]
- MDCK B/A ratio (basolateral:apical) (MDCK-mdr1 cells): 1.02

Compound: CCCCCn1cc(C(=O)c2cccc3ccccc23)c2ccc(F)cc21 [1-4j, 6-Fluoro-3-[(naphthalen-1-yl)carbonyl]-1-pentyl-1H-indole]
- MDCK B/A ratio (basolateral:apical) (MDCK-mdr1 cells): 0.000

Compound: CCCCCn1cc(C(=O)c2cccc3ccccc23)c2c(F)cccc21 [1-4h, 4-Fluoro-3-[(naphthalen-1-yl)carbonyl]-1-pentyl-1H-indole]
- MDCK B/A ratio (basolateral:apical) (MDCK-mdr1 cells): 0.000

Compound: N-(3-Ethoxycarbonylbutyl)-3-(1-naphthoyl)-1H-indole [1-4e]
- Ki (hCB1R): 1470 nM

Compound: N-(3-Carboxybutyl)-3-(1-naphthoyl)-1H-indole [1-4g]
- Ki (hCB1R): > 10000 nM

Compound: CCCc1ccc(/C=C2\C=C(CCN3CCOCC3)c3ccccc32)c2ccccc12 [2-5u, 4-{2-[(1E)-1-[(4-Propylnaphthalen-1-yl)methylidene]-1H-inden-3-yl]ethyl}morpholine]
- MDCK B/A ratio (basolateral:apical) (MDCK-mdr1 cells): 0.000
- suppression of SNE-induced mechanical allodynia ([1]; 0.3 mg/kg ip, 0.3 mg/kg): large, reversible decreases in mechanical allodynia; also recorded: ipsilateral thresholds are increased to levels of predrug contralateral thresholds; also recorded: complete suppression of mechanical allodynia symptoms
- suppression of SNE-induced mechanical allodynia ([1]; 3 mg/kg oral, 3 mg/kg): reversibly suppresses SNE neuropathy symptoms; also recorded: effective in suppressing neuropathy symptoms after oral administration; also recorded: complete suppression of allodynia symptoms at peak effect
- CNS side effects in catalepsy, rotarod, hypothermia assays (central CB1Rs; 0.3 mg/kg): lack effects in the catalepsy, rotarod, or hypothermia assays; also recorded: no effect in the assays of CNS CB1R activation
- CNS side effects in catalepsy, motor incoordination, hypothermia assays (central CB1Rs): relative lack of side effects in the catalepsy, motor incoordination, and hypothermia assays; also recorded: no significant effect on central CB1Rs
- effect in tail-flick assay ([2]; ip (2-5u 0.3 mg/kg)): small effect in the tail-flick assay; also recorded: small analgesic effect; also recorded: small effects on acute nociception
- effect in tail-flick assay ([2]; oral): small effects in the tail-flick assay
- CNS penetration (plasma, brain, CSF samples) [3]: minimal penetration of 2-5u into the CNS

Compound: C1=C(CCN2CCOCC2)c2ccccc2/C1=C/c1cccc2ccccc12 [2-5a, 4-{2-[(1E)-1-(Naphthalen-1-ylmethylidene)-1H-inden-3-yl]ethyl}-morpholine]
- suppression of SNE-induced mechanical allodynia ([1]; 0.3 mg/kg ip, 0.3 mg/kg): much smaller effect; also recorded: considerably smaller increases in thresholds than 2-5u or 2-5j

Compound: CCCCCC1=C/C(=C\c2cccc3ccccc23)c2ccccc21 [2-7a, 1-{[(1E)-3-pentyl-1H-inden-1-ylidene]methyl}naphthalene, reference compound]
- MDCK B/A ratio (basolateral:apical) (MDCK-mdr1 cells): 0.04

Compound: CCCCCCC(C)(C)c1cc(O)c2c(c1)OC(C)(C)[C@@H]1CC=C(CO)C[C@@H]21 [compound 1, reference compound]
- CNS side effects in catalepsy (ring), core temperature, rotarod tests (central CB1Rs; 0.01 mg/kg ip, positive control, 0.01 mg/kg): strong CNS side effects; also recorded: profound CNS side effects

Compound: CCCCCn1cc(C(=O)c2ccc(C(=O)OC)c3ccccc23)c2ccccc21 [1-4a, Methyl 4-[(1-Pentyl-1H-indol-3-yl)carbonyl]naphthalene-1-carboxylate]
- MDCK B/A ratio (basolateral:apical) (MDCK-mdr1 cells): 0.00

Compound: CCCCCn1cc(C(=O)c2cccc3ccccc23)c2cc(F)ccc21 [1-4i, 5-Fluoro-3-[(naphthalen-1-yl)carbonyl]-1-pentyl-1H-indole]
- MDCK B/A ratio (basolateral:apical) (MDCK-mdr1 cells): 0.000

Compound: (1E)-3-hexyl-1-(2-phenylethylidene)-1H-indene [2-7c]
- Ki (hCB1R): 4410 nM
- loss of hCB1R affinity versus 2-7a (hCB1R; versus 2-7a (pentyl)): 256 fold
- loss of hCB1R affinity versus 2-7b (hCB1R; versus naphthylidene analogue 2-7b (n-hexyl)): 10 fold

Compound: COc1ccc(/C=C2\C=C(CCN3CCOCC3)c3ccccc32)c2ccccc12 [2-5j, 4-{2-[(1E)-1-[(4-Methoxynaphthalen-1-yl)methylidene]-1H-inden-3-yl]ethyl}morpholine]
- MDCK B/A ratio (basolateral:apical) (MDCK-mdr1 cells): 0.000
- suppression of SNE-induced mechanical allodynia ([1]; 0.3 mg/kg ip, 0.3 mg/kg): large, reversible decreases in mechanical allodynia; also recorded: complete suppression of mechanical allodynia symptoms
- CNS side effects in catalepsy, rotarod, hypothermia assays (central CB1Rs): no effect in the assays of CNS CB1R activation
- CNS side effects in catalepsy, motor incoordination, hypothermia assays (central CB1Rs): relative lack of side effects in the catalepsy, motor incoordination, and hypothermia assays
- effect in tail-flick assay ([2]; oral): small effects in the tail-flick assay

Compound: CCCCCn1cc(C(=O)c2cccc3ccccc23)c2cccc(F)c21 [1-4k, 7-Fluoro-3-[(naphthalen-1-yl)carbonyl]-1-pentyl-1H-indole]
- MDCK B/A ratio (basolateral:apical) (MDCK-mdr1 cells): 0.000

Compound: Cc1c(C(=O)NN2CCCCC2)nn(-c2ccc(Cl)cc2Cl)c1-c1ccc(Cl)cc1 [compound 2]
- effect of pretreatment on antiallodynic effect of 2-5u [4]: completely blocked the antiallodynic effect of 2-5u; also recorded: completely blocks the response to 2-5u

Compound: CCc1ccc(/C=C2\C=C(CCN3CCOCC3)c3ccccc32)c2ccccc12 [2-5t, 4-{2-[(1E)-1-[(4-Ethylnaphthalen-1-yl)methylidene]-1H-indenyl]-ethyl}morpholine]
- MDCK B/A ratio (basolateral:apical) (MDCK-mdr1 cells): 0.000
- CNS side effects in catalepsy, motor incoordination, hypothermia assays (central CB1Rs): relative lack of side effects in the catalepsy, motor incoordination, and hypothermia assays
- effect in tail-flick assay ([2]; oral): small effects in the tail-flick assay
